For this series, the system named is periodontal ligament cells (rPDL).

Ends that are not written are not given here.

For the sequence “MEHFIKLYKKKTGKDVRK [SEQ ID NO: 4, MEHFIKLYKKKTGKDVRK]”, the cell permeability result is “high cell permeability”.
Under MVLTKMKETAEAYLGKKVTH [SEQ ID NO: 3] stands “high cell permeability”; under “TFAPEEISAMVLTK [SEQ ID NO: 1, TFAPEEISAMVLTK]”, “high cell permeability”.

These data come from patent EP4818192A1, “USE OF GRP78-LIKE PEPTIDES” (priority 2023, dated 2026).
